Data from patent US7238689B2, “Isoxazoline derivative and herbicide comprising the same as active ingredient” (Ihara Chemical Industry Co., Ltd., priority 2001, dated 2007).

What was measured:
Assay type in all cases: in vivo
Design in all cases: scale not given here
[1] = test system: Echinochloa oryzicola Vasing; test: Herbicidal effect by paddy field soil treatment; details: wettable powder, active ingredient 1000 g/ha, examined at the 21st day from the treatment
Procedure: (§1) A paddy field soil was filled in a plastic pot of 100 cm^2 and subjected to puddling. Then, seeds of Echinochloa oryzicola Vasing and Monochoria vaginalis (Murm. f.) Presl var. plantaginea (Roxb.) Solms-Laub. were sowed and water was filled in a depth of 3 cm. Next day, wettable powders produced in accordance with the Formulation 1 were diluted with water and dropped on the water surface. The application amount of each wettable powder was 1,000 g per 1 hectare in terms of the active ingredient. Then, breeding was made in a greenhouse, and the herbicidal effect of each wettable powder was examined at the 21st day from the treatment in accordance with the standard shown in Table 21.

[2] = test system: Monochoria vaginalis (Murm. f.) Presl var. plantaginea (Roxb.) Solms-Laub.; test: Herbicidal effect by paddy field soil treatment; details: wettable powder, active ingredient 1000 g/ha, examined at the 21st day from the treatment
Procedure: as §1

[3] = test system: Echinochloa crus-galli (L.) Beauv. var. crusgalli; test: Herbicidal effect by upland field soil treatment; details: active ingredient 1000 g/ha, examined at 21st day from treatment
Excerpt: (§2) An upland field soil was filled in a plastic pot of 80 cm^2. Seeds of Echinochloa crus-galli (L.) Beauv. var. crusgalli and Setaria viridis (L.) Beauv. were sowed, followed by covering with the same soil. […] Then, breeding was made in a greenhouse, and the herbicidal effect of each wettable powder was examined at the 21st day from the treatment in accordance with the standard shown in Table 21.

[4] = test system: Setaria viridis (L.) Beauv.; test: Herbicidal effect by upland field soil treatment; details: active ingredient 1000 g/ha, examined at 21st day from treatment
Excerpt: as §2

Compound | Herbicidal effect index, Echinochloa oryzicola Vasing [1] | Herbicidal effect index, Monochoria vaginalis (Burm. F.) Presl var. plantaginea (Roxb.) Solms-Laub. [2] | herbicidal effect (index per standard of Table 21), Echinochloa curs-galli (L.) Beauv. Var. crus-galli [3] | herbicidal effect (index per standard of Table 21), Setaria viridis (L.) Beauv. [4]
CC1(C)CC(S(=O)(=O)Cc2c(Cl)sc(Cl)c2Cl)=NO1 [2-0006] | 5 | 5 | 5 | 4
CNC(=O)c1c(Cl)sc(Cl)c1CS(=O)(=O)C1=NOC(C)(C)C1 [2-0012] | 5 | 5 | 5 | 5
CC1(C)CC(S(=O)(=O)Cc2c(C(F)(F)F)n[nH]c2Cl)=NO1 [3-0034] | 5 | 5 | 5 | 5
Cn1nc(Cl)c(CS(=O)(=O)C2=NOC(C)(C)C2)c1C(F)(F)F [3-0040] | 5 | 5 | 5 | 5
Cn1nc(C(F)(F)F)c(CS(=O)(=O)C2=NOC(C)(C)C2)c1F [3-0041] | 5 | 5 | 5 | 5
Cn1nc(C(F)(F)F)c(CS(=O)(=O)C2=NOC(C)(C)C2)c1OC(C)(C)C [3-0047] | 5 | 5 | 5 | 5
Cn1nc(C(F)(F)F)c(CS(=O)(=O)C2=NOC(C)(C)C2)c1OC(F)F [3-0054] | 5 | 5 | 5 | 5
Cn1nc(C(F)(F)F)c(CS(=O)(=O)C2=NOC(C)(C)C2)c1OCc1ccccc1 [3-0059] | 5 | 5 | 5 | 5
Cn1nc(C(F)(F)F)c(CS(=O)(=O)C2=NOC(C)(C)C2)c1Oc1ccccc1 [3-0060] | 5 | 5 | 5 | 5
Cn1nc(C(F)(F)F)c(CS(=O)(=O)C2=NOC(C)(C)C2)c1S(=O)(=O)c1ccccc1 [3-0070] | 5 | 5 | 4 | 4
Cn1nc(-c2ccccc2)c(CS(=O)(=O)C2=NOC(C)(C)C2)c1Cl [3-0072] | 5 | 5 | 5 | 5
CC1(C)CC(S(=O)(=O)Cc2c(C(F)(F)F)nn(Cc3ccccc3)c2Cl)=NO1 [3-0087] | 5 | 5 | 5 | 5
CC1(C)CC(S(=O)(=O)Cc2c(Cl)nn(Cc3ccccc3)c2C(F)(F)F)=NO1 [3-0088] | 5 | 5 | 5 | 4
CC1(C)CC(S(=O)(=O)Cc2c(C(F)(F)F)nn(C3CCCCC3)c2Cl)=NO1 [3-0091] | 5 | 5 | 5 | 5
CC1(C)CC(S(=O)(=O)Cc2c(C(F)(F)F)nn(CC(F)F)c2Cl)=NO1 [3-0114] | 5 | 5 | 5 | 5
CC1(C)CC(S(=O)(=O)Cc2c(Cl)nn(CC(F)(F)F)c2C(F)(F)F)=NO1 [3-0117] | 5 | 5 | 5 | 5
CCOCn1nc(Cl)c(CS(=O)(=O)C2=NOC(C)(C)C2)c1C(F)(F)F [3-0121] | 5 | 5 | 5 | 5
COCCn1nc(C(F)(F)F)c(CS(=O)(=O)C2=NOC(C)(C)C2)c1Cl [3-0124] | 5 | 5 | 5 | 5
COCCn1nc(Cl)c(CS(=O)(=O)C2=NOC(C)(C)C2)c1C(F)(F)F [3-0125] | 5 | 5 | 5 | 5
CCOCCn1nc(C(F)(F)F)c(CS(=O)(=O)C2=NOC(C)(C)C2)c1Cl [3-0126] | 5 | 5 | 5 | 5
CCOCCn1nc(Cl)c(CS(=O)(=O)C2=NOC(C)(C)C2)c1C(F)(F)F [3-0127] | 5 | 5 | 5 | 5
CSCn1nc(C(F)(F)F)c(CS(=O)(=O)C2=NOC(C)(C)C2)c1Cl [3-0128] | 5 | 5 | 5 | 5
CSCn1nc(Cl)c(CS(=O)(=O)C2=NOC(C)(C)C2)c1C(F)(F)F [3-0129] | 5 | 5 | 5 | 5
